Experimental findings from US9096543B2, “Nuclear transport modulators and uses thereof” (Karyopharm Therapeutics Inc., priority 2012, dated 2015) are described below.

Series [1] can be described thus: Brain to plasma ratio (B:P) in mice. Type of series: in vivo. The note with it: mouse, brain and plasma, 10 mg/kg po, 2 hours post-dose. How it is done: Brain tissue following collection was rinsed with cold saline, dried on filter paper, weighed and snap-frozen by placing on dry ice. All samples were stored frozen at approximately −80° C. until analysis. […] Plasma samples were treated with the identical method (except homogenization step) and concentration of compound in either matrix was calculated based on the generated standard curves.

Series [2] can be described thus: Pharmacokinetics (plasma AUC) in mice. Type of series: in vivo. As to conditions: mouse, 10 mg/kg po. On the procedure:
Blood was collected from mice (N=3) to contribute to the total of 10 time points (pre-dose, 5 min, 15 min, 30 min, 1 hour, 2 hours, 4 hours, 8 hours, 12 hours and 24 hours post dose). Mice were bled on a rotating basis, each mouse contributing 3 time points to the blood collection. At the designated time points, animals were anaesthetized under isoflurane, and approximately 110 μL of blood per time point was collected via retro-orbital puncture into pre-cooled K2EDTA (anti-coagulant) tubes. Blood samples were put on wet ice and centrifuged (2000 g, 5 min at 4° C.) to obtain plasma within 30 minutes of sample collection. All samples were stored frozen at approximately −80° C. until analysis. Prior to analysis, samples were mixed with internal standard (dexamethasone) in acetonitrile, vortexed, centrifuged, and supernatant was injected for analysis. Concentration of compounds in plasma was determined using LC-MS-MS instrumentation (API 4000, Triple Quadruple with electrospray ionization; Acuity Ultra Performance Liquid Chromatography column C18, with MeOH and formic acid as organic solvents). PK parameters including but not limited to Tmax, Cmax, t1/2, AUClast, AUCinf were calculated using WinNonlin Professional 6.2 software package, non-compartmental pharmacokinetic model NCA200.

A short description of series [3]: MTT Cell Proliferation Assay (CellTiter 96 AQueous One Solution, MTS). Type of series: cell-based. The note with it: human; 72 h treatment; cell line not given; read-out: Cytotoxicity [IC50]. From the text:
The CellTiter 96® AQueous One Solution cell proliferation assay (Promega) was used on MM1.S, Jurkat and HCT-116 cells to study the cytotoxic and cytostatic properties of the compounds. The assay is based on the cleavage of the tetrazolium salt, MTS, in the presence of an electron-coupling reagent PES (phenazine ethosulfate). The MTS tetrazolium compound is bioreduced by cells into a colored formazan product that is soluble in tissue culture medium. This conversion is presumably accomplished by NADPH or NADH produced by dehydrogenase enzymes in metabolically active cells. Assays are performed by adding a small amount of the CellTiter 96® AQueous One solution reagent directly to culture wells, incubating for 1-4 hours and then recording the absorbance at 490 nm with a 96-well plate reader. […] The cells were seeded at 5×10^3 to 1.5×10^4 cells (depending on cell type) in each well of 96-well plate in 100 μL of fresh culture medium and adherent cells were allowed to attach for overnight. The stock solutions of the compounds were diluted in cell culture medium to obtain eight concentrations of each drug, ranging from 1 nM to 30 μM and DMSO at less than 1% v/v was used as a negative control. After 72 h of treatment 20 μl of CellTiter 96® AQueous reagent was added into each well of the 96-well assay plates and the plate was incubate at 37° C. for 1-4 hours in a humidified, 5% CO2 atmosphere. Then the absorbance of each well was recorded at 490 nm by using a 96-well plate reader. In most cases the assay was performed in triplicates and the results were presented as half maximal inhibitory concentration (IC50) described below. Optical density versus compound concentration was plotted and analyzed using non linear regression equations (Excel Fit) and the IC50 for each compound was calculated.

The test system of series [4] is inflammation-related CRM1 cargo proteins: IκB, Nrf2, HMGB1, FoxP3, FOXO1a, RxRα, PPARγ and NFκB (p65 subunit). The series is described as follows: Immunofluorescence of nuclear localization of inflammation-related CRM1 cargos in HeLa and THP-1 cells. It is filed as cell-based, human. As to conditions: 1-10 μM Compound 1 with 20 ng/mL TNFα, 4-24 h. How it is done: HeLa and THP-1 (human acute monocytic leukemia) cells were treated with inflammation inducing factor, TNFα, alone or in combination with 1-10 μM of Compound 1 for 4-24 h, and then were analyzed by immunofluorescence (IF) for the nuclear localization of inflammation-related CRM1 cargo proteins: IκB, Nrf2, HMGB1, FoxP3, FOXO1a, RxRα, PPARγ and NFκB (p65 subunit).
For the detection of IkB, Nrf2, RxRα and PPARγ localization, cells were pre-incubated with 10 μM Compound 1 for 30 minutes, followed by incubation with 20 ng/mL TNFα for 4 hrs in serum free media. For detection of HMGB1, FoxP3 and Foxo1A, cells were pre-incubated with 1 μM of Compound 1 for 2 h, followed by incubation with 20 ng/mL TNFα for 24 hours. […] IκB was detected by the primary rabbit monoclonal (E130) antibody from Abcam (ab32518); Nrf2 was detected by the primary rabbit polyclonal antibody from Santa Cruz (sc722); RxR alpha was detected by the primary rabbit polyclonal antibody from Santa Cruz (sc553); PPAR gamma was detected by the primary rabbit monoclonal […] antibody from Cell Signaling (#2443); Foxo1A was detected by the primary rabbit monoclonal [C29H4] antibody from Cell Signaling (#2880); HMGB1 was detected by the primary rabbit polyclonal antibody from Abcam (ab18256); FoxP3 was detected by the primary rabbit polyclonal antibody from Abeam (ab10563). […]

Structures are written as SMILES. Where only a bound is given, the exact number is not on record here.

Consider `O=C(/C=C\n1cnc(-c2cc(C(F)(F)F)cc(C(F)(F)F)c2)n1)NNC(=O)CN1CCOCC1` [Compound 2, (Z)-3-(3-(3,5-bis(trifluoromethyl)phenyl)-1H-1,2,4-triazol-1-yl)-N′-(2-morpholinoacetyl)acrylohydrazide], for which, in series [1], the Kp (as a rule, the ratio of the level in a tissue or fluid to that in plasma or blood) at 2 h worked out at 0.16. In series [2], the AUC(0-inf) (commonly the area under the concentration-time curve extrapolated to infinity) amounted to 28900 ng·h/mL. Besides, in series [3], the half-inhibitory concentration (IC50) (as a rule, the concentration that inhibits the measured activity by half) at 72 h was less than 1000 nM.
For the compound `CC(C)(C)C(=O)NNC(=O)/C=C\n1cnc(-c2cc(C(F)(F)F)cc(C(F)(F)F)c2)n1` [Compound 1, (Z)-3-(3-(3,5-bis(trifluoromethyl)phenyl)-1H-1,2,4-triazol-1-yl)-N′-pivaloylacrylohydrazide], the “nuclear localization of inflammation-related CRM1 cargo proteins” value in series [4] was “demonstrate nuclear localization of the above cargos”. For the same compound, the Kp at 2 h in series [1] is 2.25. Moreover, the AUC(0-inf) in series [2] worked out at 33100 ng·h/mL. In addition, the IC50 at 72 h in series [3] is less than 1000 nM.
